Measured values taken from PMC11873939, “Target Identification with Live-Cell Photoaffinity Labeling and Mechanism of Action Elucidation of ARN23765, a Highly Potent CFTR Corrector” (Journal of Medicinal Chemistry, 2025).

Key:
Format in all cases: cell-based
[1] = target: CFTR fragments containing MSD1 (Homo sapiens, UniProt P13569); assay: CFTR fragment stability analysis (WB) in transfected HEK293 cells; conditions: HEK293, 24 h incubation, 10 nM
Description: (§1) CFTR correctors are expected to stabilize the expression of the protein domains with which they interact, resulting in an increased amount of protein.[35]−[37] To determinate the portion of CFTR with which ARN23765 interacts, constructs coding for CFTR fragments of different lengths (Figure 3A) were transfected in HEK293 cells, and the effect of 24 h incubation with ARN23765 on the expression of the truncated proteins was analyzed with WB. […] To better study ARN23765’s stabilization of MSD1 vs MSD2, we analyzed their expression in transfected HEK-293 cells over 6 h of cycloheximide treatment.
(§2) Constructs coding for MSD1 (residues 1–380), A52-tagged MSD2 (residues 837–1196) and MSD2-NBD2 (residues 850–1480) were transfected in HEK293 cells using JetPEI reagent (101000053, Polyplus Technology). After 18 h transfection, cells were treated for 24 h with either 0.2% DMSO, VX-661 (3 μM), ARN23765 (10 nM) or corr-4a (10 μM). Cell lysates were analyzed by WB, as described in the dedicated paragraph.

[2] = target: CFTR fragments containing MSD2 (Homo sapiens, UniProt P13569); assay: as above; conditions: HEK293, 24 h incubation, 10 nM
Sequence of CFTR fragments containing MSD2 (P13569 850-1196 limits assumed): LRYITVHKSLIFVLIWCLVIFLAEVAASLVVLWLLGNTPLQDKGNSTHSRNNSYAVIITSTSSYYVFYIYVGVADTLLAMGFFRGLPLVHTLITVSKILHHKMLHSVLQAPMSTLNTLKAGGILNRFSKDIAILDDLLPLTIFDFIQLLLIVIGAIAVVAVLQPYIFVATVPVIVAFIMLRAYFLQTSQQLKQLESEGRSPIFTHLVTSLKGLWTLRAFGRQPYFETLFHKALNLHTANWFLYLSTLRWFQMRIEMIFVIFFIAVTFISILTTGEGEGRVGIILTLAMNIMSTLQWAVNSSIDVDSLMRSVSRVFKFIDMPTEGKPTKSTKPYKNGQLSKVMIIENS
Description: as §1, §2

F508del/R1070W-CFTR = target: T1, F508del/R1070W-CFTR (Homo sapiens, UniProt P13569, DEL508-508/R1070W); assay: FLIPR membrane potential assay of CFTR channel activity in transfected HEK293 cells; conditions: HEK293, 24 h; ARN23765 10 nM, VX-661 3 μM
T1 construct: CFTR identification in pull-down studies and analysis of full-length CFTR in protein maturation assays; expressed in transfected cells; host or cells: HEK293 (transient)
T1 sequence (P13569 with tags, fused parts or gaps DEL508-508/R1070W): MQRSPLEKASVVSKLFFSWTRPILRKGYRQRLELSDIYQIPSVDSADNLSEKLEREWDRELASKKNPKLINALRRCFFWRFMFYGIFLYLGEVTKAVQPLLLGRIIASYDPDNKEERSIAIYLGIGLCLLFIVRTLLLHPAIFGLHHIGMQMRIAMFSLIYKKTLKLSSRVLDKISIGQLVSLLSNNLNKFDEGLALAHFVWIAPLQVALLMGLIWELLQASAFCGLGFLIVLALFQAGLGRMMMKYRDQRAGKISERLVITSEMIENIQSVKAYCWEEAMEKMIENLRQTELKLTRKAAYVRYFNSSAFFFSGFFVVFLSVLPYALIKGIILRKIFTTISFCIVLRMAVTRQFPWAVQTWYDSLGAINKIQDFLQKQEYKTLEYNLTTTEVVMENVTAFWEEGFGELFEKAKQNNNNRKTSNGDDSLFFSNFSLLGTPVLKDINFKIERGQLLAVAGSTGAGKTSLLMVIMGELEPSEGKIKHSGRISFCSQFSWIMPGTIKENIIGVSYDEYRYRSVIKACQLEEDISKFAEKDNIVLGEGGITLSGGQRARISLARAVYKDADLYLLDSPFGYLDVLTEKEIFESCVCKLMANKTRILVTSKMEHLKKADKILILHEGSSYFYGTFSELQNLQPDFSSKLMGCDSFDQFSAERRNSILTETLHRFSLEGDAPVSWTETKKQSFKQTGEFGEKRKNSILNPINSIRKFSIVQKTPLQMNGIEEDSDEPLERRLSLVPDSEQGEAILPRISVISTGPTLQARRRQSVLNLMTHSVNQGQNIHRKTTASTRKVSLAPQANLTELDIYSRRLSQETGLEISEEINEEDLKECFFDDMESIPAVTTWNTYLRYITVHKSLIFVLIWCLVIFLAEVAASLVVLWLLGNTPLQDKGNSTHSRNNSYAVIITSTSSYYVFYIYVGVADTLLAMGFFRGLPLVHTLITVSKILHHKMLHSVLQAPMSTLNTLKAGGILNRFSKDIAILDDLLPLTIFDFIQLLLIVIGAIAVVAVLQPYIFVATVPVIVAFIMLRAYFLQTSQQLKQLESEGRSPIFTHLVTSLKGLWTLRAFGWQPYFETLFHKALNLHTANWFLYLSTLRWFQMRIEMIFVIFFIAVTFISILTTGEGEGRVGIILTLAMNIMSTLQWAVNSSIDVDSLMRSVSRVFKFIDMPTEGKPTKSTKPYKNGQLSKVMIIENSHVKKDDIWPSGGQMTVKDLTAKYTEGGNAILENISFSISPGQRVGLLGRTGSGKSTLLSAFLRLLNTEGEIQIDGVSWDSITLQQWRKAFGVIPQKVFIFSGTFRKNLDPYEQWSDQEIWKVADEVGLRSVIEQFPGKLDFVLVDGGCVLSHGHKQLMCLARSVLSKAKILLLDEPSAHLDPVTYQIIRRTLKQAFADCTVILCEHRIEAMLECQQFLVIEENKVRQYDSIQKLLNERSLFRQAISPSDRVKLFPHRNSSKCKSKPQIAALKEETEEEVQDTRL
Description: (§3) HS-YFP-based assay for CFTR activity
(§4) Twenty-four hours after seeding on 96-well plates, CFBE41o- cells stably over-expressing F508del-CFTR and the HS-YFP were treated with test compounds at different concentrations in the 3 nM-10 µM range.1 Cells treated with vehicle alone (DMSO) and with ARN23765, respectively, served as negative and positive controls. The following day, cells were washed with PBS containing (in mM) 137 NaCl, 2.7 KCl, 8.1 Na2HPO4, 1.5 KH2PO4, 1.0 CaCl2, and 0.5 MgCl2. Cells were then incubated for 25 min with […] of PBS plus forskolin (20 µM) and VX-770 (1 µM) to maximally stimulate F508del-CFTR. Cells were then transferred to a microplate reader (FluoStar Galaxy; BMG Labtech, Offenburg, Germany) for CFTR activity determination. The plate reader was equipped with high-quality excitation (HQ500/20X: 500 ± 10 nm) and emission (HQ535/30M: 535 ± 15 nm) filters for YFP (Chroma Technology). Each assay comprised a continuous 14 s fluorescence reading, 2 s before and 12 s after injection of […] of an iodide-containing solution (PBS with Cl- replaced by I-; final I- concentration […]). Data were normalized to the initial background-subtracted fluorescence. […]
(§5) Cell lysates or eluates from pull-down experiments were resolved by SDS-PAGE on 4-8 % tris-acetate gels (EA0378BOX, Life technologies) and were transferred into PVDF membranes (Immobilion-E IEVH00005, Millipore). […] Images were acquired with Chemidoc MP (BIO-RAD laboratories) and quantified with Image J software.
(§6) CFTR Channel function analysis by fluorometric imaging plate reader functional (FLIPR) assay FLIPR assay was performed as previously described.3 Briefly, HEK293 cells were seeded in 96-well plates (black, flat bottom, Corning) and transfected with mutated CFTR constructs. […]
(§7) µM) for 24 h at 30 °C or 37 °C. […] The plate was then read in a fluorescence plate reader (SpectraMax i3, Molecular Devices) at 37 °C (excitation: 530 nm, emission: 560 nm). […] CFTR-mediated depolarization was detected as an increase in fluorescence. […] The peak changes in fluorescence were normalized to fluorescence immediately […]

R170G-CFTR = target: T2, R170G-CFTR (Homo sapiens, UniProt P13569, R170G); assay: as above; conditions: HEK293, 24 h, 10 nM
T2 construct: CFTR identification in pull-down studies and analysis of full-length CFTR in protein maturation assays; expressed in transfected cells; host or cells: HEK293 (transient)
T2 sequence (P13569 whole entry R170G): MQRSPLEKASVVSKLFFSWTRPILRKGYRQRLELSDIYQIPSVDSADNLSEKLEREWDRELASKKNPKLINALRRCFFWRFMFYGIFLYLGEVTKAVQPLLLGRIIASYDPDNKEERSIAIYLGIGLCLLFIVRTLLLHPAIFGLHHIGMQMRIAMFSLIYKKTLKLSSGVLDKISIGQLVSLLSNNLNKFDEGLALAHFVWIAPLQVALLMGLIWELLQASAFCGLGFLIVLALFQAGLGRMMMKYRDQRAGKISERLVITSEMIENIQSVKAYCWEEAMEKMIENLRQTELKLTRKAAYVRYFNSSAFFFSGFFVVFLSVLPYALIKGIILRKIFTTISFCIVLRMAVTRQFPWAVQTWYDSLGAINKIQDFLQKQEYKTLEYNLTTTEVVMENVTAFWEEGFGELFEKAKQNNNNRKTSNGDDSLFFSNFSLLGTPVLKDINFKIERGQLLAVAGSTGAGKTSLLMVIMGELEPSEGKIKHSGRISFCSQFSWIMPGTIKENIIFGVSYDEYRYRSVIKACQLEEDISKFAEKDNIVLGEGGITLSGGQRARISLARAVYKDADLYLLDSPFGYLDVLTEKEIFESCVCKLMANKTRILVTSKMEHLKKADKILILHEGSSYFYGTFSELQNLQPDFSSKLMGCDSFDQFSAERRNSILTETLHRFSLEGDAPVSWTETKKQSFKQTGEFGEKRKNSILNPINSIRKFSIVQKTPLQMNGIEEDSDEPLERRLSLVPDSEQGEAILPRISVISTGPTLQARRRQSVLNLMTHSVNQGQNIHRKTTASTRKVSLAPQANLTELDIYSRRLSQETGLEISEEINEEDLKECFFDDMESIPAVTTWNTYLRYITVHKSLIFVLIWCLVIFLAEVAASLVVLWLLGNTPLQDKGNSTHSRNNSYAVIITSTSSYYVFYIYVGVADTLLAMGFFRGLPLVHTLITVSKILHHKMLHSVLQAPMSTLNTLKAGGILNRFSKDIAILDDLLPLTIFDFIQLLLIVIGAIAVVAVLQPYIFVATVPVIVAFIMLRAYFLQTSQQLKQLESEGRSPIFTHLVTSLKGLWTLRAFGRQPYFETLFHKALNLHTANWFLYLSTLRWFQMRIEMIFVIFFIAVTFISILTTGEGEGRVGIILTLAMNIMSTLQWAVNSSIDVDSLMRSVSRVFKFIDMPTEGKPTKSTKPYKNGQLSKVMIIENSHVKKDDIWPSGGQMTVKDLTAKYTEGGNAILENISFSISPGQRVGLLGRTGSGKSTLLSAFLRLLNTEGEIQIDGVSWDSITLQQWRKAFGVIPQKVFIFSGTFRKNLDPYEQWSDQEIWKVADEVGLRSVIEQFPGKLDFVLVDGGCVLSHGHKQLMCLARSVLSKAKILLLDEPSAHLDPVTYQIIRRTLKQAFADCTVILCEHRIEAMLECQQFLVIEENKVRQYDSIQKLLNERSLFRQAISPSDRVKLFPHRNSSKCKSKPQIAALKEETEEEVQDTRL
Description: as §3, §4, §5, §6, §7

Sequence of CFTR fragments containing MSD1 (P13569 1-380 limits assumed): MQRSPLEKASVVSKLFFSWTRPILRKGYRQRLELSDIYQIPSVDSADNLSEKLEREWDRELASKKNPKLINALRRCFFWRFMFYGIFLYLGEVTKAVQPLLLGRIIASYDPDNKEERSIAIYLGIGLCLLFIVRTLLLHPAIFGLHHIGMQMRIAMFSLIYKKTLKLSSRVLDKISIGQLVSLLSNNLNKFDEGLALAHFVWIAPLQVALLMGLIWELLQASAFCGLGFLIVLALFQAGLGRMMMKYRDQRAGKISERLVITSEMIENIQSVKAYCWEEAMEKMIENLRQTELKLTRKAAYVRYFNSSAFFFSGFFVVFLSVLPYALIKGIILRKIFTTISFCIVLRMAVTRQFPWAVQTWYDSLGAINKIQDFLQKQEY

Correction of CFTR with R domain deleted (delR construct, WB) [1]: still corrected | Expression of CFTR fragments containing MSD1 (WB) [1]: increased expression | Expression of CFTR fragments containing MSD2 (WB) [2]: no difference in expression | F508del/R1070W channel activity (FLIPR) (F508del/R1070W-CFTR): further enhanced | R170G-CFTR activity (FLIPR) (R170G-CFTR): improving
Compound: CN(C(=O)c1cccc(-n2nc(C(F)(F)F)c3c2[C@@H](Oc2ccc(C(=O)O)cc2)CCC3)c1)c1ccc2c(c1)OC(F)(F)O2 [ARN23765]
